Measurements published in the supplement of paper PMC10307832.

Legend:
Test in all cases: relative viability (nuclei count vs DMSO), 5 days (fraction); higher = more cells survive
HARA = tested on: HARA
Outline: (§1)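 After 5 days of treatment, lung cancer cells in 1536-well plates were fixed and stained in a single step (final 0.05% Triton X-100, 1% formaldehyde, 1 ug/ml Hoechst) and their nuclei counted on 4× images. Treatment had been applied by pin tool the day after seeding as one drug alone or as a fixed anchor-drug dose with five library-drug doses (not always all listed) in √10 steps. Relative viability is the nuclei count of treated wells divided by that of vehicle wells, and values are medians of duplicate plates.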

NCI-H2126 = tested on: NCI-H2126
Outline: as §1

CAL-12T = tested on: CAL-12T
Outline: as §1

NCI-H1975 = tested on: NCI-H1975
Outline: as §1

NCI-H647 = tested on: NCI-H647
Outline: as §1

NCI-H460 = tested on: NCI-H460
Outline: as §1

NCI-H727 = tested on: NCI-H727
Outline: as §1

A-427 = tested on: A-427
Outline: as §1

NCI-H596 = tested on: NCI-H596
Outline: as §1

NCI-H1734 = tested on: NCI-H1734
Outline: as §1

NCI-H520 = tested on: NCI-H520
Outline: as §1

BEN = tested on: BEN
Outline: as §1

NCI-H1666 = tested on: NCI-H1666
Outline: as §1

NCI-H2085 = tested on: NCI-H2085
Outline: as §1

NCI-H838 = tested on: NCI-H838
Outline: as §1

RERF-LC-KJ = tested on: RERF-LC-KJ
Outline: as §1

LOU-NH91 = tested on: LOU-NH91
Outline: as §1

NCI-H1944 = tested on: NCI-H1944
Outline: as §1

NCI-H1651 = tested on: NCI-H1651
Outline: as §1

In the case of CCNC(=O)c1noc(-c2cc(C(C)C)c(O)cc2O)c1-c1ccc(CN2CCOCC2)cc1 [Luminespib] + CC1(C)CCC(c2ccc(Cl)cc2)=C(CN2CCN(c3ccc(C(=O)NS(=O)(=O)c4ccc(N[C@H](CCN5CCOCC5)CSc5ccccc5)c(S(=O)(=O)C(F)(F)F)c4)cc3)CC2)C1 [Navitoclax] (partner 0.5 µM), the relative viability (HARA; first compound 0.002 µM) is reported as 1.21, the relative viability (HARA; first compound 0.006325 µM) is reported as 1.14 and the relative viability (HARA; first compound 0.02 µM) is reported as 1.15. It also gave a relative viability (HARA; first compound 0.06325 µM) of 1.08, a relative viability (HARA; first compound 0.2 µM) of 0.553 and a relative viability (NCI-H2126; first compound 0.002 µM) of 0.852. It also gave a relative viability (NCI-H2126; first compound 0.006325 µM) of 0.777, a relative viability (NCI-H2126; first compound 0.02 µM) of 0.506 and a relative viability (NCI-H2126; first compound 0.06325 µM) of 0.864. For the same compound, the relative viability (NCI-H2126; first compound 0.2 µM) was 0.874, the relative viability (CAL-12T; first compound 0.002 µM) was 1.47 and the relative viability (CAL-12T; first compound 0.006325 µM) was 1.23. It also gave a relative viability (CAL-12T; first compound 0.02 µM) of 0.491, a relative viability (CAL-12T; first compound 0.06325 µM) of 0.106 and a relative viability (CAL-12T; first compound 0.2 µM) of 0.116. For the same compound, the relative viability (NCI-H1975; first compound 0.002 µM) was 1.17, the relative viability (NCI-H1975; first compound 0.006325 µM) was 1.06 and the relative viability (NCI-H1975; first compound 0.02 µM) was 0.877. The relative viability (NCI-H1975; first compound 0.06325 µM) was 0.218, the relative viability (NCI-H1975; first compound 0.2 µM) was 0.142 and the relative viability (NCI-H647; first compound 0.002 µM) was 1.23. For the same compound, the relative viability (NCI-H647; first compound 0.006325 µM) was 1.06, the relative viability (NCI-H647; first compound 0.02 µM) was 1.18 and the relative viability (NCI-H647; first compound 0.06325 µM) was 0.0943. For the same compound, the relative viability (NCI-H647; first compound 0.2 µM) was 0.0973, the relative viability (NCI-H460; first compound 0.002 µM) was 1.23 and the relative viability (NCI-H460; first compound 0.006325 µM) was 1.01. For the same compound, the relative viability (NCI-H460; first compound 0.02 µM) was 0.0537, the relative viability (NCI-H460; first compound 0.06325 µM) was 0.0176 and the relative viability (NCI-H460; first compound 0.2 µM) was 0.0134. The relative viability (NCI-H727; first compound 0.002 µM) was 0.43, the relative viability (NCI-H727; first compound 0.006325 µM) was 0.449 and the relative viability (NCI-H727; first compound 0.02 µM) was 0.408. For the same compound, the relative viability (NCI-H727; first compound 0.06325 µM) was 0.218, the relative viability (NCI-H727; first compound 0.2 µM) was 0.27 and the relative viability (A-427; first compound 0.002 µM) was 1.01. The relative viability (A-427; first compound 0.006325 µM) was 0.913, the relative viability (A-427; first compound 0.02 µM) was 0.497 and the relative viability (A-427; first compound 0.06325 µM) was 0.99. The relative viability (A-427; first compound 0.2 µM) was 1.03, the relative viability (NCI-H596; first compound 0.002 µM) was 0.954 and the relative viability (NCI-H596; first compound 0.006325 µM) was 0.886. For the same compound, the relative viability (NCI-H596; first compound 0.06325 µM) was 0.936, the relative viability (NCI-H596; first compound 0.2 µM) was 0.996 and the relative viability (NCI-H1734; first compound 0.002 µM) was 0.878. It also gave a relative viability (NCI-H1734; first compound 0.006325 µM) of 0.698, a relative viability (NCI-H1734; first compound 0.02 µM) of 0.777 and a relative viability (NCI-H1734; first compound 0.06325 µM) of 0.172. It also gave a relative viability (NCI-H1734; first compound 0.2 µM) of 0.122, a relative viability (NCI-H520; first compound 0.002 µM) of 1.01 and a relative viability (NCI-H520; first compound 0.006325 µM) of 1. For the same compound, the relative viability (NCI-H520; first compound 0.02 µM) was 1.1, the relative viability (NCI-H520; first compound 0.06325 µM) was 0.177 and the relative viability (NCI-H520; first compound 0.2 µM) was 0.167. The relative viability (BEN; first compound 0.002 µM) was 0.0714, the relative viability (BEN; first compound 0.006325 µM) was 0.0602 and the relative viability (BEN; first compound 0.02 µM) was 0.0673. For the same compound, the relative viability (BEN; first compound 0.06325 µM) was 0.0655, the relative viability (BEN; first compound 0.2 µM) was 0.0846 and the relative viability (NCI-H1666; first compound 0.002 µM) was 0.807. It also gave a relative viability (NCI-H1666; first compound 0.006325 µM) of 0.97, a relative viability (NCI-H1666; first compound 0.02 µM) of 1.29 and a relative viability (NCI-H1666; first compound 0.06325 µM) of 0.913. The relative viability (NCI-H1666; first compound 0.2 µM) was 0.554, the relative viability (NCI-H2085; first compound 0.002 µM) was 1.15 and the relative viability (NCI-H2085; first compound 0.006325 µM) was 1.13. It also gave a relative viability (NCI-H2085; first compound 0.02 µM) of 1.14, a relative viability (NCI-H2085; first compound 0.06325 µM) of 0.677 and a relative viability (NCI-H2085; first compound 0.2 µM) of 0.503. For the same compound, the relative viability (NCI-H838; first compound 0.002 µM) was 1.3, the relative viability (NCI-H838; first compound 0.006325 µM) was 1.12 and the relative viability (NCI-H838; first compound 0.02 µM) was 1.07. The relative viability (NCI-H838; first compound 0.06325 µM) was 0.18, the relative viability (NCI-H838; first compound 0.2 µM) was 0.193 and the relative viability (RERF-LC-KJ; first compound 0.002 µM) was 0.987. It also gave a relative viability (RERF-LC-KJ; first compound 0.006325 µM) of 1.11, a relative viability (RERF-LC-KJ; first compound 0.02 µM) of 1.07 and a relative viability (RERF-LC-KJ; first compound 0.06325 µM) of 0.221. It also gave a relative viability (RERF-LC-KJ; first compound 0.2 µM) of 0.22, a relative viability (LOU-NH91; first compound 0.002 µM) of 0.692 and a relative viability (LOU-NH91; first compound 0.006325 µM) of 0.707. The relative viability (LOU-NH91; first compound 0.02 µM) was 0.49, the relative viability (LOU-NH91; first compound 0.06325 µM) was 0.257 and the relative viability (LOU-NH91; first compound 0.2 µM) was 0.256. It also gave a relative viability (NCI-H1944; first compound 0.002 µM) of 1.06, a relative viability (NCI-H1944; first compound 0.006325 µM) of 0.99 and a relative viability (NCI-H1944; first compound 0.02 µM) of 0.708. For the same compound, the relative viability (NCI-H1944; first compound 0.06325 µM) was 0.939, the relative viability (NCI-H1944; first compound 0.2 µM) was 0.973 and the relative viability (NCI-H1651; first compound 0.002 µM) was 0.967. The relative viability (NCI-H1651; first compound 0.006325 µM) was 1.1, the relative viability (NCI-H1651; first compound 0.02 µM) was 1.08 and the relative viability (NCI-H1651; first compound 0.06325 µM) was 0.18. It also gave a relative viability (NCI-H1651; first compound 0.2 µM) of 0.144.
